# Measured values taken from patent US6087121A, “Chemiluminescent detection of heme proteins in biological samples” (Mayo Foundation for Medical Education and Research, priority 1999, dated 2000).
# Values joined by “and” are separate entries in the source; they are usually repeats but may differ in a detail not shown here. Identical values can stand only once.
# T1: Myeloperoxidase (Homo sapiens, UniProt P05164)
# T1 sequence (P05164 49-745): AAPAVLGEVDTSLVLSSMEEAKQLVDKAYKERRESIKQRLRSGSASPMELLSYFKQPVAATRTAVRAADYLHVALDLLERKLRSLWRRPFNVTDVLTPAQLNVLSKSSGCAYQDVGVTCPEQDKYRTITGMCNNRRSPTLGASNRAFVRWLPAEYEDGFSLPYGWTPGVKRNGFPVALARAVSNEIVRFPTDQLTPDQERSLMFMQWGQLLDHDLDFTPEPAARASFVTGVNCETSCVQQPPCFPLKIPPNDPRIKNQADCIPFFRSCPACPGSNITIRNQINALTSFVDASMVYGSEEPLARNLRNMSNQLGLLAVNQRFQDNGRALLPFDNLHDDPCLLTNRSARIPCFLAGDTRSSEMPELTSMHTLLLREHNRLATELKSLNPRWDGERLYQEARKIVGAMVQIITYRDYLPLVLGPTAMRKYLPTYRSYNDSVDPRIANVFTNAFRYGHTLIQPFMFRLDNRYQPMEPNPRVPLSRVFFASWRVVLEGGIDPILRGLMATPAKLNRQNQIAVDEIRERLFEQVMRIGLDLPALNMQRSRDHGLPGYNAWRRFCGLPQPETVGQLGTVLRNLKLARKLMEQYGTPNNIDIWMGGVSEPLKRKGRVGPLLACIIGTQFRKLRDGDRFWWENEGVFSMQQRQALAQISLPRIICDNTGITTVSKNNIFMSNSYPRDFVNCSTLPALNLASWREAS
# T2: Eosinophil Peroxidase (Homo sapiens, UniProt P11678)
# T2 sequence (P11678 140-715): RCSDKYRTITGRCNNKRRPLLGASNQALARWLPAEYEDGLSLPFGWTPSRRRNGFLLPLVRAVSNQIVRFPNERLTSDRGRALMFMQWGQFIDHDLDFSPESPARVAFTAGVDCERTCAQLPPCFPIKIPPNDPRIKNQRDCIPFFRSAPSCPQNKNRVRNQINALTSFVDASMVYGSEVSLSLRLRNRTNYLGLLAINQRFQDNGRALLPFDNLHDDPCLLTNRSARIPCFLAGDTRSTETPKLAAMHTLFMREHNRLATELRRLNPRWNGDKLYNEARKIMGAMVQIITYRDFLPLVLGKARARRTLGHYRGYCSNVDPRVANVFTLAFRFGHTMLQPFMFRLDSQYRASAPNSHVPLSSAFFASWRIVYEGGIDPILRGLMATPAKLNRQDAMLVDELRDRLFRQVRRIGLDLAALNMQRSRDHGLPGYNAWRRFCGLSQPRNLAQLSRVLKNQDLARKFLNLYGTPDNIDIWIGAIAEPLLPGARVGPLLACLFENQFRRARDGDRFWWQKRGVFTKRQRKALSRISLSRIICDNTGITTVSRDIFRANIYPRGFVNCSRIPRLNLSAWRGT
# T3: Thyroid peroxidase (Homo sapiens, UniProt P07202)
# T3 sequence (P07202 19-933): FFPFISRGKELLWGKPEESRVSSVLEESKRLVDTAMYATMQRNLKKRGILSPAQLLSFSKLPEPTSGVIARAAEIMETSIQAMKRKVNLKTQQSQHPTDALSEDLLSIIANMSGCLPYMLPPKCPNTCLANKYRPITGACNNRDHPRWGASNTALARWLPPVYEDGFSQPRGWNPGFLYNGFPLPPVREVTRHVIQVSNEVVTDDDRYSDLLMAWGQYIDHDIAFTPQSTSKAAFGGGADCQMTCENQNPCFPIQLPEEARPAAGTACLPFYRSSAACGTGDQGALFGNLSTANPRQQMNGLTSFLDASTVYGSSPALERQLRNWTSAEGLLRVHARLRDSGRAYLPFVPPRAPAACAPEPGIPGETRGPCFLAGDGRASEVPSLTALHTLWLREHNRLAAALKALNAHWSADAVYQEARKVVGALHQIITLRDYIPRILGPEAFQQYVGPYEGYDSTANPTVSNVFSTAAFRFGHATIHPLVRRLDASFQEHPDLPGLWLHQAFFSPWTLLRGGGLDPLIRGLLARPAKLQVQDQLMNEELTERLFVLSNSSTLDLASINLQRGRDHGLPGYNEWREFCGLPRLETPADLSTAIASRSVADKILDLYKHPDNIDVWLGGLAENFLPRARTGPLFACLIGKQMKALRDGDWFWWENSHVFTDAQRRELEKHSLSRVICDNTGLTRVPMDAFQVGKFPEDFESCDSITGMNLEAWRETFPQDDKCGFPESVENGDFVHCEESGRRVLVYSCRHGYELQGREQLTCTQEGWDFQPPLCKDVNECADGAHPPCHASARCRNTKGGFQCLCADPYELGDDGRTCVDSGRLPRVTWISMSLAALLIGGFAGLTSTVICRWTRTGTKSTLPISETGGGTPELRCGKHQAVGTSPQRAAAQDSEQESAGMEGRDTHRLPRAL
# T4: Myoglobin (Homo sapiens, UniProt P02144)
# T4 sequence (P02144 1-154): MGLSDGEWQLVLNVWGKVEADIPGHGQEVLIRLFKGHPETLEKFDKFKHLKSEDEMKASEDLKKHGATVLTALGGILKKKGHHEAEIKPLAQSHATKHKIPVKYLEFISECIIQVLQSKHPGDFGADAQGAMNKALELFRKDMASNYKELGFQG
# T5: MPO (Homo sapiens, UniProt P05164)
# T5 sequence (P05164 49-745): T1 sequence (P05164 49-745)
# B1: Myeloperoxidase: myeloperoxidase obtained from Calbiochem (protein, UniProt P05164 165-745, looked up)
# Myeloperoxidase: VTCPEQDKYRTITGMCNNRRSPTLGASNRAFVRWLPAEYEDGFSLPYGWTPGVKRNGFPVALARAVSNEIVRFPTDQLTPDQERSLMFMQWGQLLDHDLDFTPEPAARASFVTGVNCETSCVQQPPCFPLKIPPNDPRIKNQADCIPFFRSCPACPGSNITIRNQINALTSFVDASMVYGSEEPLARNLRNMSNQLGLLAVNQRFQDNGRALLPFDNLHDDPCLLTNRSARIPCFLAGDTRSSEMPELTSMHTLLLREHNRLATELKSLNPRWDGERLYQEARKIVGAMVQIITYRDYLPLVLGPTAMRKYLPTYRSYNDSVDPRIANVFTNAFRYGHTLIQPFMFRLDNRYQPMEPNPRVPLSRVFFASWRVVLEGGIDPILRGLMATPAKLNRQNQIAVDEIRERLFEQVMRIGLDLPALNMQRSRDHGLPGYNAWRRFCGLPQPETVGQLGTVLRNLKLARKLMEQYGTPNNIDIWMGGVSEPLKRKGRVGPLLACIIGTQFRKLRDGDRFWWENEGVFSMQQRQALAQISLPRIICDNTGITTVSKNNIFMSNSYPRDFVNCSTLPALNLASWREAS
# Key:
# [1] = target: T1, Myeloperoxidase; assay: Inhibition of peroxidase activities with PS-1 by methimazole: Myeloperoxidase; format: biochemical; details: 50 μmol/L methimazole, enzyme 1 μg/mL
# Procedure: (§1) Urine samples were diluted 1:4 into distilled water to minimize inhibitory effects observed with hyperosmolal urines. Two μL of diluted urine were added to 12×75 mm polystyrene test tube containing 50 μL of the PS-1 solution. The tubes were incubated at 37° C. for 5 minutes. MPO activity was determined by chemiluminescence emission using a Turner TD-20e luminometer maintained at 37° C. Leukocyte counting was performed manually by using a hemacytometer chamber (Kova Glasstic slide, Hycor, Irvine, Calif.) on each urine sample to determine the number of cells/mL.
# (§2) The reactivity of PS-1 with heme proteins was assessed to determine if this substrate had more restricted specificity. Materials and methods were according to the description above.
# (§3) Several peroxidases were detected with PS-1 substrate including EPO, MPO, LPO, and TPO. Addition of 50 μmol/L methimazole, an inhibitor of EPO, reduces activities of EPO, TPO and LPO by >90%, while MPO was inhibited by less than about 50% (Table 6). The addition of methimazole to the PS-1 assay allows MPO activity to be detected selectively.
# [2] = target: T2, Eosinophil Peroxidase; assay: Inhibition of peroxidase activities with PS-1 by methimazole: Eosinophil Peroxidase; format: biochemical; details: 50 μmol/L methimazole, enzyme 1 μg/mL
# Procedure: as §1, §2, §3
# [3] = target: T3, Thyroid peroxidase; assay: Inhibition of peroxidase activities with PS-1 by methimazole: Thyroid peroxidase; format: biochemical; details: 50 μmol/L methimazole, enzyme 1 μg/mL
# Procedure: as §1, §2, §3
# [4] = target: Lactoperoxidase (Bos taurus, UniProt P80025); assay: Inhibition of peroxidase activities with PS-1 by methimazole: Lactoperoxidase; format: biochemical; details: 50 μmol/L methimazole, enzyme 1 μg/mL
# Procedure: as §1, §2, §3
# [5] = target: Hemoglobin (Homo sapiens, UniProt P68871+P69905); assay: Inhibition of peroxidase activities with PS-1 by methimazole: Hemoglobin; format: biochemical; details: 50 μmol/L methimazole, protein 1 μg/mL
# Sequence of Hemoglobin (P69905 whole entry): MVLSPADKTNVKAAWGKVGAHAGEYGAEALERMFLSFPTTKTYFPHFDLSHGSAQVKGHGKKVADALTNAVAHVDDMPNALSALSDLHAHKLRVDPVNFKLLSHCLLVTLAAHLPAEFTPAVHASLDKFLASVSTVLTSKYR
# Sequence of Hemoglobin (P68871 whole entry): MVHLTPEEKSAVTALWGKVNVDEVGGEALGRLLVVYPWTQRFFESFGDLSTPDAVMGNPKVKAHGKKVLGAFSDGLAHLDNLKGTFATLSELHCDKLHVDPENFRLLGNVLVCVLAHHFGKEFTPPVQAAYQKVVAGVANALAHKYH
# Procedure: (§4) Centricon ultrafiltration filters were obtained from Amicon (Daven, Mass.). Polystyrene tubes (5.0 mL volume, 75×12 mm) used for the assay were manufactured by Sarstedt (Arlington Heights, Ill.). The chemiluminescent substrate, 7-dimethylamino-naphthalene-1,2-dicarbonic acid-hydrazide (7-DNH) was purchased from Boehringer Mannheim (Indianapolis, Ind.). PS-1 acridan substrate (solution A and solution B) was obtained from Lumigen Inc. (Southfield, Mich.). Dimethyl sulfoxide, cetyltrimethyl-ammonium chloride (CTAC) as a 25% liquid and glycerol were obtained from Aldrich Chemical Company Inc. (Milwaukee, Wis.). Tween-20 and Sodium Chloride were purchased from Fisher Scientific (Fair Lawn, N.J.). […]
# (§5) Urine samples were diluted 1:4 into distilled water to minimize inhibitory effects observed with hyperosmolal urines. […] MPO activity was determined by chemiluminescence emission using a Turner TD-20e luminometer maintained at 37° C. […]
# (§6) The reactivity of PS-1 with heme proteins was assessed to determine if this substrate had more restricted specificity. […]
# [6] = target: T4, Myoglobin; assay: Inhibition of peroxidase activities with PS-1 by methimazole: Myoglobin; format: biochemical; details: 50 μmol/L methimazole, protein 1 μg/mL
# Procedure: as §4, §5, §6
# [7] = system: Hb; assay: Interference studies in Hb assay (7-DNH chemiluminescence); format: biochemical, human
# Procedure: Numerous potential interfering substances, which either enhance or quench the signal generated by cyclic hydrazides, were evaluated. The effects of these potentially interfering substances on light emission was investigated at varying concentrations of the interfering composition. Assays were performed using serial dilutions of the potential interfering compositions in ultrafiltered urine at a fixed concentration of Hb. Comparisons of chemiluminescence emission were made between a reference solution (Hb in ultrafiltered urine) without added interfering compositions and solutions with added interferant.
# Generally, the value of 3 RBC per high power field is the normal cutoff point.
# Bilirubin and uric acid were examined as a possible negative interfering compositions because of their chemical structure which may quench energy emitted.
# [8] = target: T5, MPO; assay: Performance characteristics of WBC assay, MPO standard; details: listed as MPO
# Procedure: as §1
# Intra- and inter-assay imprecision was performed for MPO standards, WBC standards and 3 urine samples. Intra- and inter-assay imprecision tests were performed as described for the Hb assay in Example 7. The effect of time on the stability of enzyme activity in the leukocytes was examined. The effect of adding a quinoline antimicrobial agent, ofloxacin, was also studied with respect to its stabilization of the leukocytes.
# [9] = system: MPO; assay: Effect of temperature/time on chemiluminescence emission from MPO with PS-1; format: biochemical
# Procedure: as §1
# The kinetics of chemiluminescence emission from MPO at 37° C. was followed over time using several urine samples diluted 4-fold in water (FIG. 11). […] Assays in Examples 10-16 were performed at 37° C., and chemiluminescence emission determined at 5 minutes.
molecule,measurement,setting,value
"Cn1cc[nH]c1=S [Methimazole, methimazole]",Chemiluminescence with methimazole,[1],130 TLU
same,inhibition at 50 µM,[1],58%
same,Chemiluminescence with methimazole,[2],74 TLU
same,inhibition at 50 µM,[2],> 90%
same,Chemiluminescence with methimazole,[3],0.1 TLU
same,inhibition at 50 µM,[3],> 90%
same,Chemiluminescence with methimazole,[4],0.9 TLU
same,inhibition at 50 µM,[4],> 90%
same,Chemiluminescence with methimazole,[5],0.8 TLU
same,inhibition at 50 µM,[5],9%
same,Chemiluminescence with methimazole,[6],1.9 TLU
same,inhibition at 50 µM,[6],39%
B1,Level of Interference (in words),"[7]; highest conc: ascorbic acid 10, bilirubin 10, Cu++/Mn++ 40, sodium azide 500 μg/mL, uric acid 1 mg/mL",only interfere at very high concentrations
same,Level of Interference,"[7]; level producing a signal equivalent to 3 RBC per high power field, fixed Hb concentration",> 6.2 µg/mL
same,"CV%, MPO Standard","[8]; Table 10, intra-assay precision, 0.01% Triton incorporated",2.05% and 3.56% and 4.33% and 4.63%
same,"CV%, MPO Standard","[8]; Table 11, 0.01% Triton incorporated",6.36% and 8.39% and 8.26% and 5.50%
same,change in RLU (constant chemiluminescence emission),"[9]; 37° C., between 3 and 20 minutes",less than 5%
same,time of maximum light emission,[9]; room temperature,15 min
